Results on 29 compounds are retold here after patent US10882856B2 (BeiGene, Ltd., priority 2017, dated 2021).

One may read the EC50 as the concentration at which the effect is half-maximal. For orientation: IC50 means the concentration that inhibits the measured activity by half.

Assay [1] addresses T1, cellular TDO2 in HEK293-TDO2 cells (Homo sapiens, UniProt P48775).
T1 construct: expressed in transfected cells; host or cells: HEK293 (ATCC), stably transfected
Put plainly: 293-TDO2 cell-based assay (Kyn colorimetric). The settings on record: 48 hours of incubation. How it is done:
The inhibitory activity of TDO2 inhibitors is determined by using a colorimetric reaction to measure Kyn generated from L-Trp (L-Tryptophon) oxidation by cellular TDO2 in HEK293-TDO2 cells stably transfected with a plasmid expression of Tryptophan 2,3-dioxygenase (for short, 293-TDO2).
HEK293 cells were obtained from the American Type Culture Collection and 293-TDO2 were recovered in 10% FBS-containing phenol red-free DMEM medium. Cells were plated onto a 96-well plate (100 μl/well) at 10000 cells per well and kept at 37° C. in a humidified incubator supplied with 5% CO2. 4 hours later, Compounds at different concentrations diluted in dimethylsulfoxide (DMSO) were added to plate. Cells were kept at 37° C. in a humidified incubator supplied with 5% CO2. After 48 hours of incubation, 100 μl supernatant from each well was removed to a new plate. The protein in the medium was precipitated with the addition of 8 μl 6N trichloroacetic acid. The plate was incubated at 60° C. for 30 minutes and then centrifugation at 2500 rpm for 10 minutes to remove sediments. 80 μl supernatants were carefully removed to a new clean plate and added with an equal volume of 2% 4-(Dimethylamino) benzaldehyde (D2004, sigma) dissolved in glacial acetic acid. The absorbance at 480 nm wavelength derived from Kyn was measured using a PHERAstar FS plate reader (BMG LABTECH). The IC50 for each compound was derived from fitting the dose-response data to the four-parameter logistic model by using XLfit software (IDBS).

Assay [2] has as its target T2, IDO1 (Homo sapiens, UniProt P14902). Kind of assay: Hela cell-based IDO1 assay. As to conditions: Hela cells. In outline:
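HeLa cells were seeded at 8000 per well in 96-well plates in phenol red-free DMEM with 10% FBS. After 4 hours, DMSO-diluted compound dilutions were added with IFN-γ (final 100 ng/mL) and 0.4 mM L-Trp, and cells were kept 48 hours at 37 °C, 5% CO2. Supernatant was deproteinised with trichloroacetic acid, and kynurenine was measured at 480 nm after adding 2% 4-(dimethylamino)benzaldehyde. Potency came from four-parameter logistic fits in XLfit.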

The target in assay [3] is T2, IDO1. Put plainly: IDO1 enzymatic assay. It is filed as biochemical. More on the design: His tag (N); made in house; host or cells: E. coli. The settings on record: read-out: Enzyme IC50 IDO1. In outline: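 IC50 values reflect remaining IDO1 activity over increasing compound concentrations. The enzyme (50 nM, N-terminally His-tagged, purified from E. coli) was incubated for 1.5 hours at 24 °C with compound, 1.3 mM D-tryptophan, 5 mM L-ascorbic acid, methylene blue and 0.4 mg/mL catalase in 50 mM potassium phosphate pH 7.5 with 0.1% BSA. The slope of N'-formylkynurenine formation, read continuously at 321 nm for 1 hour, served as activity.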

T1 sequence (P48775 whole entry): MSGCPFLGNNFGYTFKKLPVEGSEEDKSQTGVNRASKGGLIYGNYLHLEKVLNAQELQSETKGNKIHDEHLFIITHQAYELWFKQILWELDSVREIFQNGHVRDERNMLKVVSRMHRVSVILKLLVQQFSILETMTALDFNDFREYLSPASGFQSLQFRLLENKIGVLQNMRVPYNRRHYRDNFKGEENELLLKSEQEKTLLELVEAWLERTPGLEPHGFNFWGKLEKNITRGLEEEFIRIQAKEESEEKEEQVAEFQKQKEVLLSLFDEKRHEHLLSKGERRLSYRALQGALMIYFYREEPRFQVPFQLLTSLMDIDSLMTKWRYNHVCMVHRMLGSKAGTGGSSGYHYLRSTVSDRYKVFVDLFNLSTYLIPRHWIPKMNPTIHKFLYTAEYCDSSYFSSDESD
T2 sequence (P14902 whole entry): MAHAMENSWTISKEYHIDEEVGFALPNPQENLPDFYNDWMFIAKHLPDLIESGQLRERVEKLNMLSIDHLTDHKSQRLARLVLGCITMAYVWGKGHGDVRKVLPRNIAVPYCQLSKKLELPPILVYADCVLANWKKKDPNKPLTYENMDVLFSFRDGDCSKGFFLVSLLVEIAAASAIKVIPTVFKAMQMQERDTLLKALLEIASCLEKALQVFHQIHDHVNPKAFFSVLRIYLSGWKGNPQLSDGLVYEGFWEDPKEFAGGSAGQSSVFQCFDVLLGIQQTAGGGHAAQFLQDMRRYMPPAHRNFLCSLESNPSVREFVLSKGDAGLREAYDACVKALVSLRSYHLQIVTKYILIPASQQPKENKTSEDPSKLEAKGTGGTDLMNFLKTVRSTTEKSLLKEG

Turning to `COc1ccc(C2CCC(C(O)c3c(C4CC4)ccn4cncc34)CC2)cc1` (racemic) [Example C101, (7-cyclopropylimidazo[1,5-a]pyridin-8-yl)(4-(4-methoxyphenyl)cyclohexyl)methanol], the half-maximal effective concentration (EC50) was above 10 µM in assay [1] and 0.2 µM at IDO1 [2]. Also, the 50% inhibitory concentration (IC50) on IDO1 [3] turned out to be 0.041 µM.

Take `OC(c1c(C2CC2)ccn2cncc12)C1CCC(c2ccc(Cl)cc2)CC1` (racemic) [Example C102, (4-(4-chlorophenyl)cyclohexyl)(7-cyclopropylimidazo[1,5-a]pyridin-8-yl)methanol]: the half-maximal effective concentration (EC50) is above 10 µM in assay [1] and 0.261 µM at IDO1 [2]. For the same compound, the IC50 on IDO1 [3] came out at 0.1 µM.

As for `COCCOc1ccc(C2CCC(C(O)c3c(C4CC4)ccn4cncc34)CC2)cc1` (racemic) [Example C103, (7-cyclopropylimidazo[1,5-a]pyridin-8-yl)(4-(4-(2-methoxyethoxy)phenyl)cyclohexyl)methanol], the values for the concentration giving a half-maximal response (EC50) (in assay [1]; on IDO1 [2]) were above 10 µM and 0.095 µM, respectively. Moreover, at IDO1 [3], the half-inhibitory concentration (IC50) came out at 0.062 µM.

`Oc1ccc(C2CCC(C(O)c3c(C4CC4)ccn4cncc34)CC2)cc1` (racemic) [Example C104]: the EC50 in assay [1] was above 10 µM; on IDO1 [2], 0.082 µM. At IDO1 [3], the half-inhibitory concentration (IC50) amounted to 0.036 µM.

Take `OC(c1c(C2CC2)ccn2cncc12)C1CCC(c2ccc(OC(F)(F)F)cc2)CC1` (racemic) [Example C105]: the EC50 was above 10 µM in assay [1] and 2.01 µM on IDO1 [2]. Further, at IDO1 [3], the concentration for half-maximal inhibition (IC50) amounted to 0.21 µM.

Turning to `N#Cc1ccc(C2CCC(C(O)c3c(C4CC4)ccn4cncc34)CC2)cc1` (racemic) [Example C106, 4-(4-((7-cyclopropylimidazo[1,5-a]pyridin-8-yl)(hydroxy)methyl)cyclohexyl)benzonitrile], the figures for the concentration giving a half-maximal response (EC50) (in assay [1]; at IDO1 [2]) were above 10 µM and 0.429 µM, respectively. Moreover, at IDO1 [3], the IC50 stood at 0.05 µM.

As for `OC(c1c(C2CC2)ccn2cncc12)C1CCC(c2ccc(F)cc2)CC1` (racemic) [Example C107, (7-cyclopropylimidazo[1,5-a]pyridin-8-yl)(4-(4-fluorophenyl)cyclohexyl)methanol], the EC50 in assay [1] was above 10 µM; on IDO1 [2] it was 0.157 µM. The half-inhibitory concentration (IC50) on IDO1 [3] is 0.065 µM.

Take `OC(c1c(C2CC2)ccn2cncc12)C1CCC(c2ccccc2F)CC1` (racemic) [Example C108, (7-cyclopropylimidazo[1,5-a]pyridin-8-yl)(4-(2-fluorophenyl)cyclohexyl)methanol]: the EC50 in assay [1] is above 10 µM; at IDO1 [2] it was 0.32 µM. Also, on IDO1 [3], the half-inhibitory concentration (IC50) was 0.059 µM.

As for `OC(c1c(C2CC2)ccn2cncc12)C1CCC(c2cccc(F)c2)CC1` (racemic) [Example C109, (7-cyclopropylimidazo[1,5-a]pyridin-8-yl)(4-(3-fluorophenyl)cyclohexyl)methanol], the concentration for a half-maximal effect (EC50) in assay [1] is above 10 µM; at IDO1 [2] it was 0.1 µM. The half-maximal inhibitory concentration (IC50) at IDO1 [3] was found to be 0.087 µM.

Turning to `Cc1cccc(C2CCC(C(O)c3c(C4CC4)ccn4cncc34)CC2)c1` (racemic) [Example C111, (7-cyclopropylimidazo[1,5-a]pyridin-8-yl)(4-(m-tolyl)cyclohexyl)methanol], the EC50 was above 10 µM in assay [1] and 0.2 µM at IDO1 [2]. Also, the half-inhibitory concentration (IC50) on IDO1 [3] was found to be 0.082 µM.

`O[C@@H](c1c(C2CC2)ccn2cncc12)[C@H]1CC[C@H](c2ccc(Cl)cc2)CC1` (single isomer, unassigned) [Example C102b]: the EC50 (in assay [1]; at IDO1 [2]) was above 10 µM in each case. Moreover, the half-inhibitory concentration (IC50) on IDO1 [3] is above 10 µM.

`COCCOc1ccc([C@H]2CC[C@H]([C@@H](O)c3c(C4CC4)ccn4cncc34)CC2)cc1` (single isomer, unassigned) [Example C103b]: the values for the 50% effective concentration (EC50) (in assay [1]; on IDO1 [2]) were above 10 µM and 2.98 µM, respectively. Moreover, the concentration for half-maximal inhibition (IC50) at IDO1 [3] was found to be 1.2 µM.

Regarding `Oc1ccc([C@H]2CC[C@H](C(O)c3c(C4CC4)ccn4cncc34)CC2)cc1` (single isomer, unassigned) [Example C104b], the EC50 (in assay [1]; on IDO1 [2]) was above 10 µM throughout. Moreover, the concentration for half-maximal inhibition (IC50) at IDO1 [3] worked out at 5.2 µM.

Turning to `O[C@@H](c1c(C2CC2)ccn2cncc12)[C@H]1CC[C@H](c2ccc(OC(F)(F)F)cc2)CC1` (single isomer, unassigned) [Example C105b], the 50% effective concentration (EC50) (in assay [1]; on IDO1 [2]) was above 10 µM each time. Moreover, at IDO1 [3], the concentration for half-maximal inhibition (IC50) amounted to 2 µM.

Consider `N#Cc1ccc([C@H]2CC[C@H](C(O)c3c(C4CC4)ccn4cncc34)CC2)cc1` (single isomer, unassigned) [Example C106b], for which the concentration giving a half-maximal response (EC50) (in assay [1]; on IDO1 [2]) was above 10 µM each time. The half-inhibitory concentration (IC50) at IDO1 [3] is 2.3 µM.

On to `O[C@@H](c1c(C2CC2)ccn2cncc12)[C@H]1CC[C@H](c2ccc(F)cc2)CC1` (single isomer, unassigned) [Example C107b], for which the EC50 (in assay [1]; at IDO1 [2]) was above 10 µM in each case. Moreover, the IC50 on IDO1 [3] worked out at 5.1 µM.

As to `O[C@@H](c1c(C2CC2)ccn2cncc12)[C@H]1CC[C@H](c2ccccc2F)CC1` (single isomer, unassigned) [Example C108b], the EC50 (in assay [1]; at IDO1 [2]) was above 10 µM each time. Besides, on IDO1 [3], the IC50 turned out to be 7.3 µM.

On to `O[C@@H](c1c(C2CC2)ccn2cncc12)[C@H]1CC[C@H](c2cccc(F)c2)CC1` (single isomer, unassigned) [Example C109b], for which the EC50 (in assay [1]; at IDO1 [2]) was above 10 µM in each case. Moreover, the IC50 on IDO1 [3] was above 10 µM.

For `Cc1ccc([C@H]2CC[C@H]([C@@H](O)c3c(C4CC4)ccn4cncc34)CC2)cc1` (single isomer, unassigned) [Example C110b], the concentration for a half-maximal effect (EC50) (in assay [1]; on IDO1 [2]) was above 10 µM throughout. Moreover, the IC50 on IDO1 [3] is above 10 µM.

As for `Cc1cccc([C@H]2CC[C@H]([C@@H](O)c3c(C4CC4)ccn4cncc34)CC2)c1` (single isomer, unassigned) [Example C111b], the 50% effective concentration (EC50) (in assay [1]; at IDO1 [2]) was above 10 µM each time. In addition, at IDO1 [3], the IC50 was above 10 µM.

With `Cc1ccccc1[C@H]1CC[C@H]([C@@H](O)c2c(C3CC3)ccn3cncc23)CC1` (single isomer, unassigned) [Example C112b], the concentration for a half-maximal effect (EC50) (in assay [1]; at IDO1 [2]) was above 10 µM throughout. Moreover, the IC50 on IDO1 [3] was above 10 µM.

In the case of `COc1ccccc1[C@H]1CC[C@H]([C@@H](O)c2c(C3CC3)ccn3cncc23)CC1` (single isomer, unassigned) [Example C113b], the half-maximal effective concentration (EC50) (in assay [1]; on IDO1 [2]) was above 10 µM throughout. In addition, the IC50 at IDO1 [3] is 8.2 µM.

In the case of `COc1cccc([C@H]2CC[C@H]([C@@H](O)c3c(C4CC4)ccn4cncc34)CC2)c1` (single isomer, unassigned) [Example C114b], the EC50 (in assay [1]; on IDO1 [2]) was above 10 µM each time. For the same compound, on IDO1 [3], the concentration for half-maximal inhibition (IC50) is 4.7 µM.

For `O[C@@H](c1c(C2CC2)ccn2cncc12)[C@H]1CC[C@H](c2ccc(C(F)(F)F)cc2)CC1` (single isomer, unassigned) [Example C115b], the half-maximal effective concentration (EC50) is above 10 µM in assay [1] and 9.45 µM on IDO1 [2]. Moreover, the IC50 at IDO1 [3] is above 10 µM.

Regarding `O[C@@H](c1c(C2CC2)ccn2cncc12)[C@H]1CC[C@H](c2ccccc2C(F)(F)F)CC1` (single isomer, unassigned) [Example C116b], the EC50 (in assay [1]; on IDO1 [2]) was above 10 µM each time. Also, the 50% inhibitory concentration (IC50) at IDO1 [3] worked out at 5.4 µM.

`OC(c1c(C2CC2)ccc2cncn12)[C@H]1CC[C@H](c2cccc(F)c2F)CC1` (single isomer, unassigned) [Example D132b] had a half-maximal effective concentration (EC50) at IDO1 [2] above 10 µM. In addition, on IDO1 [3], the IC50 came to 7.5 µM.

With `O[C@H](c1c(C2CC2)ccc2cncn12)C1CCN(c2ccccc2)CC1` (single isomer, unassigned) [Example D170a], the EC50 in assay [1] was above 10 µM; at IDO1 [2], 0.022 µM.

Consider `O[C@H](c1c(C2CC2)ccc2cncn12)C1CCN(c2ccc(Cl)c3ncccc23)CC1` (single isomer, unassigned) [Example D178a], for which the EC50 in assay [1] is above 10 µM; on IDO1 [2], 0.0097 µM.

Compound `OC(c1c(C2CC2)ccn2cncc12)C1CCC(c2ccc(F)c(F)c2)CC1` (centres unmarked) [Example C131, (7-cyclopropylimidazo[1,5-a]pyridin-8-yl)(4-(3,4-difluorophenyl)cyclohexyl)methanol] had a concentration for a half-maximal effect (EC50) in assay [1] above 10 µM. For the same compound, the concentration for half-maximal inhibition (IC50) on IDO1 [3] was 0.11 µM.
